Some results are limits rather than exact numbers.

The source of these data is patent US9499550B2 (BRISTOL-MYERS SQUIBB COMPANY, priority 2012, dated 2016).

Assay [1] has as its system HCV genotype 1a (H77 strain) replicon in HUH-7 cells. The assay can be described thus: HCV replicon luciferase reporter assay, genotype 1a. Conditions: Hepatitis C virus, Huh-7, 72 h, HCV genotype 1a replicon luciferase assay, 3 days incubation, range class, read-out: LE_1a (EC50, range). The assay is classed as cell-based. The method, boiled down:
(§1)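 Replicon inhibition for both genotypes was measured as Renilla luciferase signal (EnduRen, 7.5 μM final, 2 h) after 3-day, 37° C exposure of replicon-bearing HUH-7 cells in 4% FCS DMEM, 0.5% DMSO. The 1b construct carries S1179I; the 1a H77 construct carries P1496L and S2204I. Twenty-point, 3-fold dilutions were fitted four-parametrically for EC50, and CC50 was taken from multiplexed Cell Titer-Blue.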
For orientation: In antiviral work, replicon cells carry a viral genome segment that copies itself.

Assay [2] has as its system HCV genotype 1b (Con1) replicon in HUH-7 cells. The assay can be described thus: HCV replicon luciferase reporter assay, genotype 1b. The assay is classed as cell-based. Conditions: Hepatitis C virus, Huh-7, 72 h, HCV genotype 1b replicon luciferase assay, 3 days incubation, range class, read-out: LE_1b (EC50, range). The method, boiled down:
as §1

As a reminder, the EC50 is the concentration at which the effect is half-maximal. `COc1cnc(O[C@@H]2C[C@H]3C(=O)N[C@]4(C(=O)NS(=O)(=O)C5(CF)CC5)C[C@H]4/C=C\CC[C@@H](C)C[C@@H](C)[C@H](NC(=O)OC4(C(F)(F)F)CCOC4)C(=O)N3C2)c2ccccc12` (stereo partly drawn) [Compound 1066, 3-(trifluoromethyl)tetrahydrofuran-3-yl((2R,6S,7R,9R,13aS,14aR,16aS,Z)-14a-(((1-(fluoromethyl)cyclopropyl)sulfonyl)carbamoyl)-2-((4-methoxyisoquinolin-1-yl)oxy)-7,9-dimethyl-5,16-dioxo-1,2,3,5,6,7,8,9,10,11,13a,14,14a,15,16,16a-hexadecahydrocyclopropa[e]pyrrolo[1,2-a][1,4]diazacyclopentadecin-6-yl)carbamate]: the EC50 in assay [1] and in assay [2] was under 5.46 nM each time.

For the molecule `COc1ccc2c(O[C@@H]3C[C@H]4C(=O)N[C@]5(C(=O)NS(=O)(=O)C6CC6)C[C@H]5/C=C\CC[C@H](C)C[C@@H](C)[C@H](NC(=O)OC(C)(C)C)C(=O)N4C3)nccc2c1` [Compound 1067, tert-butyl ((2R,6S,7R,9S,13aS,14aR,16aS,Z)-14a-((cyclopropylsulfonyl)carbamoyl)-2-((6-methoxyisoquinolin-1-yl)oxy)-7,9-dimethyl-5,16-dioxo-1,2,3,5,6,7,8,9,10,11,13a,14,14a,15,16,16a-hexadecahydrocyclopropa[e]pyrrolo[1,2-a][1,4]diazacyclopentadecin-6-yl)carbamate], the EC50 in assay [1] and in assay [2] was under 5.46 nM in each case.

For `COc1ccc2c(O[C@@H]3C[C@H]4C(=O)N[C@]5(C(=O)NS(=O)(=O)C6CC6)C[C@H]5/C=C\CC[C@@H](C)C[C@@H](C)[C@H](NC(=O)OC(C)(C)C)C(=O)N4C3)nccc2c1` [Compound 1068, tert-butyl ((2R,6S,7R,9R,13aS,14aR,16aS,Z)-14a-((cyclopropylsulfonyl)carbamoyl)-2-((6-methoxyisoquinolin-1-yl)oxy)-7,9-dimethyl-5,16-dioxo-1,2,3,5,6,7,8,9,10,11,13a,14,14a,15,16,16a-hexadecahydrocyclopropa[e]pyrrolo[1,2-a][1,4]diazacyclopentadecin-6-yl)carbamate], the EC50 in assay [1] and in assay [2] was under 5.46 nM each time.

For `CCCOc1cc2c(Cl)cccc2c(O[C@@H]2C[C@H]3C(=O)N[C@]4(C(=O)NS(=O)(=O)C5CC5)C[C@H]4/C=C\CC[C@H](C)C[C@@H](C)[C@H](NC(=O)OC(C)(C)C)C(=O)N3C2)n1` [Compound 1069, tert-butyl ((2R,6S,7R,9S,13aS,14aR,16aS,Z)-2-((5-chloro-3-propoxyisoquinolin-1-yl)oxy)-14a-((cyclopropylsulfonyl)carbamoyl)-7,9-dimethyl-5,16-dioxo-1,2,3,5,6,7,8,9,10,11,13a,14,14a,15,16,16a-hexadecahydrocyclopropa[e]pyrrolo[1,2-a][1,4]diazacyclopentadecin-6-yl)carbamate], the EC50 in assay [1] and in assay [2] was under 5.46 nM throughout.

Consider `CCCOc1cc2c(Cl)cccc2c(O[C@@H]2C[C@H]3C(=O)N[C@]4(C(=O)NS(=O)(=O)C5CC5)C[C@H]4/C=C\CC[C@@H](C)C[C@@H](C)[C@H](NC(=O)OC(C)(C)C)C(=O)N3C2)n1` [Compound 1070, tert-butyl ((2R,6S,7R,9R,13aS,14aR,16aS,Z)-2-((5-chloro-3-propoxyisoquinolin-1-yl)oxy)-14a-((cyclopropylsulfonyl)carbamoyl)-7,9-dimethyl-5,16-dioxo-1,2,3,5,6,7,8,9,10,11,13a,14,14a,15,16,16a-hexadecahydrocyclopropa[e]pyrrolo[1,2-a][1,4]diazacyclopentadecin-6-yl)carbamate], for which the EC50 in assay [1] and in assay [2] was under 5.46 nM in each case.

As to `CCCOc1cc2c(Cl)cccc2c(O[C@@H]2C[C@H]3C(=O)N[C@]4(C(=O)NS(=O)(=O)C5(C)CC5)C[C@H]4/C=C\CC[C@H](C)C[C@@H](C)[C@H](NC(=O)OC(C)(C)C)C(=O)N3C2)n1` [Compound 1071, tert-butyl ((2R,6S,7R,9S,13aS,14aR,16aS,Z)-2-((5-chloro-3-propoxyisoquinolin-1-yl)oxy)-7,9-dimethyl-14a-(((1-methylcyclopropyl)sulfonyl)carbamoyl)-5,16-dioxo-1,2,3,5,6,7,8,9,10,11,13a,14,14a,15,16,16a-hexadecahydrocyclopropa[e]pyrrolo[1,2-a][1,4]diazacyclopentadecin-6-yl)carbamate], the EC50 in assay [1] and in assay [2] was under 5.46 nM in each case.

On to `CCCOc1cc2c(Cl)cccc2c(O[C@@H]2C[C@H]3C(=O)N[C@]4(C(=O)NS(=O)(=O)C5(C)CC5)C[C@H]4/C=C\CC[C@@H](C)C[C@@H](C)[C@H](NC(=O)OC(C)(C)C)C(=O)N3C2)n1` [Compound 1072, tert-butyl ((2R,6S,7R,9R,13aS,14aR,16aS,Z)-2-((5-chloro-3-propoxyisoquinolin-1-yl)oxy)-7,9-dimethyl-14a-(((1-methylcyclopropyl)sulfonyl)carbamoyl)-5,16-dioxo-1,2,3,5,6,7,8,9,10,11,13a,14,14a,15,16,16a-hexadecahydrocyclopropa[e]pyrrolo[1,2-a][1,4]diazacyclopentadecin-6-yl)carbamate], for which the EC50 in assay [1] and in assay [2] was under 5.46 nM each time.

With `C[C@H]1CC/C=C\[C@@H]2C[C@@]2(C(=O)NS(=O)(=O)C2(C)CC2)NC(=O)[C@@H]2C[C@@H](Oc3nc(OCC(F)F)cc4c(Cl)cccc34)CN2C(=O)[C@@H](NC(=O)OC(C)(C)C)[C@H](C)C1` [Compound 1073, tert-butyl ((2R,6S,7R,9S,13aS,14aR,16aS,Z)-2-((5-chloro-3-(2,2-difluoroethoxyl)isoquinolin-1-yl)oxy)-7,9-dimethyl-14a-(((1-methylcyclopropyl)sulfonyl)carbamoyl)-5,16-dioxo-1,2,3,5,6,7,8,9,10,11,13a,14,14a,15,16,16a-hexadecahydrocyclopropa[e]pyrrolo[1,2-a][1,4]diazacyclopentadecin-6-yl)carbamate], the concentration for a half-maximal effect (EC50) in assay [1] and in assay [2] was under 5.46 nM each time.

On to `C[C@@H]1CC/C=C\[C@@H]2C[C@@]2(C(=O)NS(=O)(=O)C2(C)CC2)NC(=O)[C@@H]2C[C@@H](Oc3nc(OCC(F)F)cc4c(Cl)cccc34)CN2C(=O)[C@@H](NC(=O)OC(C)(C)C)[C@H](C)C1` [Compound 1074, tert-butyl ((2R,6S,7R,9R,13aS,14aR,16aS,Z)-2-((5-chloro-3-(2,2-difluoroethoxyl)isoquinolin-1-yl)oxy)-7,9-dimethyl-14a-(((1-methylcyclopropyl)sulfonyl)carbamoyl)-5,16-dioxo-1,2,3,5,6,7,8,9,10,11,13a,14,14a,15,16,16a-hexadecahydrocyclopropa[e]pyrrolo[1,2-a][1,4]diazacyclopentadecin-6-yl)carbamate], for which the concentration for a half-maximal effect (EC50) in assay [1] and in assay [2] was under 5.46 nM in each case.

`C[C@H]1CC/C=C\[C@@H]2C[C@@]2(C(=O)NS(=O)(=O)C2CC2)NC(=O)[C@@H]2C[C@@H](Oc3nc(OCC(F)F)cc4c(Cl)cccc34)CN2C(=O)[C@@H](NC(=O)OC(C)(C)C)[C@H](C)C1` [Compound 1075, tert-butyl ((2R,6S,7R,9S,13aS,14aR,16aS,Z)-2-((5-chloro-3-(2,2-difluoroethoxy)isoquinolin-1-yl)oxy)-14a-((cyclopropylsulfonyl)carbamoyl)-7,9-dimethyl-5,16-dioxo-1,2,3,5,6,7,8,9,10,11,13a,14,14a,15,16,16a-hexadecahydrocyclopropa[e]pyrrolo[1,2-a][1,4]diazacyclopentadecin-6-yl)carbamate]: the EC50 in assay [1] and in assay [2] was under 5.46 nM in each case.
